Test results published in ChEMBL document CHEMBL1201862, “PubChem BioAssay data set” (2004).
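Assay format: 96-well plates, 48-hour exposure. GI50: concentration for 50% inhibition of growth.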 Calls of active or inactive are those of the source. Cut-off read from the data, not from the text of the source: active = GI50 up to about 1.1 µM and inactive = higher.

How the values were obtained:
Assay in all cases: NCI anticancer screen, dose series, 48 h
Hs-578T = tested on: Hs-578T
COLO 205 = tested on: COLO 205
DU-145 = tested on: DU-145
SNB-19 = tested on: SNB-19
MCF7 = tested on: MCF7
SF-295 = tested on: SF-295
SN12C = tested on: SN12C
A549 = tested on: A549
HCC 2998 = tested on: HCC 2998
HOP-62 = tested on: HOP-62
K562 = tested on: K562
HOP-92 = tested on: HOP-92
NCI-H23 = tested on: NCI-H23
MDA-N = tested on: MDA-N
U-251 = tested on: U-251
NCI-H460 = tested on: NCI-H460
SF-268 = tested on: SF-268
NCI-H226 = tested on: NCI-H226
HCT-15 = tested on: HCT-15
HCT-116 = tested on: HCT-116
SF-539 = tested on: SF-539
PC-3 = tested on: PC-3
HT-29 = tested on: HT-29
LOX IMVI = tested on: LOX IMVI
KM12 = tested on: KM12
UACC-257 = tested on: UACC-257
T47D = tested on: T47D
SK-MEL-5 = tested on: SK-MEL-5
SK-MEL-28 = tested on: SK-MEL-28
HL-60 = tested on: HL-60
IGROV-1 = tested on: IGROV-1
SK-MEL-2 = tested on: SK-MEL-2
UO-31 = tested on: UO-31
CAKI-1 = tested on: CAKI-1
SW-620 = tested on: SW-620
OVCAR-5 = tested on: OVCAR-5
RPMI-8226 = tested on: RPMI-8226
SNB-75 = tested on: SNB-75
EKVX = tested on: EKVX
CCRF-CEM = tested on: CCRF-CEM
Malme-3M = tested on: Malme-3M
M14 = tested on: M14
MDA-MB-231 = tested on: MDA-MB-231
ACHN = tested on: ACHN
UACC-62 = tested on: UACC-62
NCI-H522 = tested on: NCI-H522
SK-OV-3 = tested on: SK-OV-3
NCI/ADR-RES = tested on: NCI/ADR-RES
MDA-MB-435 = tested on: MDA-MB-435
OVCAR-8 = tested on: OVCAR-8
786-0 = tested on: 786-0
OVCAR-3 = tested on: OVCAR-3
BT-549 = tested on: BT-549
MOLT-4 = tested on: MOLT-4
RXF 393 = tested on: RXF 393
TK-10 = tested on: TK-10
OVCAR-4 = tested on: OVCAR-4
A498 = tested on: A498

CCO/C=N/C1=C(C#N)C(c2ccc(OC)c(OC)c2)c2c(-c3ccccc3)nn(-c3ccccc3)c2O1 (configuration not stated)
GI50 (Hs-578T): 20.5 µM (inactive)
GI50 (COLO 205): 13.1 µM (inactive)
GI50 (DU-145): 14.6 µM (inactive)
GI50 (SNB-19): 15.9 µM (inactive)
GI50 (MCF7): 16.6 µM (inactive)
GI50 (SF-295): 11.1 µM (inactive)
GI50 (SN12C): 14.8 µM (inactive)
GI50 (A549): 18.3 µM (inactive)
GI50 (HCC 2998): > 100 µM (inactive)
GI50 (HOP-62): 17.7 µM (inactive)
GI50 (K562): 6.68 µM (inactive)
GI50 (HOP-92): 13.4 µM (inactive)
GI50 (NCI-H23): 15.4 µM (inactive)
GI50 (MDA-N): 18.7 µM (inactive)
GI50 (U-251): 12.7 µM (inactive)
GI50 (NCI-H460): > 100 µM (inactive)
GI50 (SF-268): 18.5 µM (inactive)
GI50 (NCI-H226): 11.3 µM (inactive)
GI50 (HCT-15): 5.11 µM
GI50 (HCT-116): 13.1 µM (inactive)
GI50 (SF-539): 8.67 µM (inactive)
GI50 (PC-3): 13.6 µM (inactive)
GI50 (HT-29): 19.1 µM (inactive)
GI50 (LOX IMVI): 15.4 µM (inactive)
GI50 (KM12): 8.02 µM (inactive)
GI50 (UACC-257): > 100 µM (inactive)
GI50 (T47D): 9.14 µM (inactive)
GI50 (SK-MEL-5): 12 µM (inactive)
GI50 (SK-MEL-28): 15 µM (inactive)
GI50 (HL-60): 3.21 µM (inactive)
GI50 (IGROV-1): 3.16 µM (inactive)
GI50 (SK-MEL-2): 18.5 µM (inactive)
GI50 (UO-31): 17.7 µM (inactive)
GI50 (CAKI-1): 17 µM (inactive)
GI50 (SW-620): 11.8 µM (inactive)
GI50 (OVCAR-5): 10.7 µM (inactive)
GI50 (RPMI-8226): 21.4 µM (inactive)
GI50 (SNB-75): 15.5 µM (inactive)
GI50 (EKVX): 16.1 µM (inactive)
GI50 (CCRF-CEM): 2.23 µM (inactive)
GI50 (Malme-3M): 19 µM (inactive)
GI50 (M14): 21.4 µM (inactive)
GI50 (MDA-MB-231): 19.2 µM (inactive)
GI50 (ACHN): 13.2 µM (inactive)
GI50 (UACC-62): 14.4 µM (inactive)
GI50 (NCI-H522): 10.6 µM (inactive)
GI50 (SK-OV-3): 21.2 µM (inactive)
GI50 (NCI/ADR-RES): 15.6 µM (inactive)
GI50 (MDA-MB-435): 17 µM (inactive)
GI50 (OVCAR-8): 19.2 µM (inactive)
GI50 (786-0): 13.6 µM (inactive)
GI50 (OVCAR-3): 16.1 µM (inactive)
GI50 (BT-549): 8.13 µM (inactive)
GI50 (MOLT-4): 8.02 µM (inactive)
GI50 (RXF 393): 12.2 µM (inactive)

COc1ccc(C2CC3(c4ccccc4)ON=C(c4ccccc4)N3c3ccccc3S2)cc1 (configuration not stated)
GI50 (Hs-578T): > 100 µM (inactive)
GI50 (COLO 205): > 100 µM (inactive)
GI50 (DU-145): > 100 µM (inactive)
GI50 (MCF7): > 100 µM (inactive)
GI50 (SF-295): > 100 µM (inactive)
GI50 (SN12C): > 100 µM (inactive)
GI50 (A549): > 100 µM (inactive)
GI50 (HCC 2998): > 100 µM (inactive)
GI50 (TK-10): > 100 µM (inactive)
GI50 (HOP-62): > 100 µM (inactive)
GI50 (NCI-H23): > 100 µM (inactive)
GI50 (MDA-N): > 100 µM (inactive)
GI50 (U-251): > 100 µM (inactive)
GI50 (NCI-H460): > 100 µM (inactive)
GI50 (SF-268): > 100 µM (inactive)
GI50 (NCI-H226): > 100 µM (inactive)
GI50 (HCT-15): > 100 µM
GI50 (HCT-116): > 100 µM (inactive)
GI50 (OVCAR-4): > 100 µM (inactive)
GI50 (SF-539): > 100 µM (inactive)
GI50 (PC-3): > 100 µM (inactive)
GI50 (HT-29): > 100 µM (inactive)
GI50 (LOX IMVI): > 100 µM (inactive)
GI50 (KM12): > 100 µM (inactive)
GI50 (UACC-257): > 100 µM (inactive)
GI50 (T47D): > 100 µM (inactive)
GI50 (SK-MEL-5): > 100 µM (inactive)
GI50 (SK-MEL-28): > 100 µM (inactive)
GI50 (IGROV-1): > 100 µM (inactive)
GI50 (UO-31): 51.2 µM (inactive)
GI50 (CAKI-1): > 100 µM (inactive)
GI50 (SW-620): > 100 µM (inactive)
GI50 (OVCAR-5): > 100 µM (inactive)
GI50 (RPMI-8226): > 100 µM (inactive)
GI50 (SNB-75): > 100 µM (inactive)
GI50 (EKVX): > 100 µM (inactive)
GI50 (CCRF-CEM): > 100 µM (inactive)
GI50 (Malme-3M): > 100 µM (inactive)
GI50 (M14): > 100 µM (inactive)
GI50 (MDA-MB-231): > 100 µM (inactive)
GI50 (ACHN): > 100 µM (inactive)
GI50 (UACC-62): > 100 µM (inactive)
GI50 (NCI-H522): > 100 µM (inactive)
GI50 (SK-OV-3): > 100 µM (inactive)
GI50 (NCI/ADR-RES): > 100 µM (inactive)
GI50 (MDA-MB-435): > 100 µM (inactive)
GI50 (A498): > 100 µM (inactive)
GI50 (OVCAR-8): > 100 µM (inactive)
GI50 (786-0): > 100 µM (inactive)
GI50 (OVCAR-3): > 100 µM (inactive)
GI50 (BT-549): > 100 µM (inactive)
GI50 (RXF 393): > 100 µM (inactive)
